Results from patent EP3290412A1, “HIV-1 NUCLEOCAPSID INHIBITORS” (Università degli Studi di Siena, priority 2016, dated 2018).

How the values were obtained:
[1] = test system: HeLa cells; assay: HeLa Proliferation assay (CellTiter Glo); format: cell-based; conditions: 72 hours
Procedure: HeLa cells (ATCC® CCL2™) in DMEM (Dulbecco Modified Eagle's Medium) without phenol red, Thermo, 11880, USA + 10% FBS + 1X PenStrep + 1X Gln or HUVEC cells (ATCC® CRL1730™) in EBM-2 (Endothelial Growth Basal Medium, Lonza, CC3156) + EGM-2 SingleQuotsTMSupplements and Growth Factors (Lonza, CC4176) + 1X Penicyllin-Streptomycin (PenStrep, ThermoFisher) + 1X Glutamine, are plated in a 384 well plate (Thermo, 4334-11, USA) to a density of 2000 cells per well and let recover for four hours at 37 °C, 5% CO2 in a humidified atmosphere. After the recovery, compounds are transferred to assay plates as per compound preparation method. Assay plates are then incubated at 37 °C, 5% CO2 in a humidified atmosphere for 72 hours. Cell viability is measured by the CellTiter Glo (Promega, G8080, USA) as per manufacturer instruction.

[2] = test system: Peripheral blood mononuclear cells (PBMC); format: cell-based; conditions: human, 7 days
Procedure: Peripheral blood mononuclear cells (PBMC) obtained from healthy donors by separation over Ficoll-Hypaque (GEHealthear-Cat.# GEH17-1440-02) were suspended at 2x10^6 cells/mL in RPMI 1640 (Biowest-Cat.#L0501-500) supplemented with 10% of heat-inactivated sterile fetal bovine serum (Gibco-Cat.#10270-106), 2 mmol/l L-glutamine (Biowest-Cat.#X0550-100), 50 U/mL Penicillin-50 µg/mL Streptomycin (Biowest-Cat.#L0022-100), referred to as complete medium (CM). PBMC were supplemented with 5 µg/mL of phytohaemagglutinin (Sigma Aldr-Cat.#L1668) and cultured in 75 cm^2 flasks (Sarsted-Cat.#833.911.002) for 2 days at 37 °C in a humidified atmosphere with 5% CO2.
PBMC were then washed in CM, counted by trypan blue exclusion (Gibco-Cat. #15250-061), centrifuged and suspended in fresh CM supplemented with 20 IU/mL recombinant human IL-2 (Miltenyi Biotec-Cat.#130-097-748) and seeded in a 96-well-tissue culture plate (Sarsted-Ca#831.837) at the density of 5x10^5 cells/mL (or 1x10^5 cells in 200 µL final CM volume per well). Cells were left untreated (negative control) or treated with different concentrations of the compounds.
After 7 days of incubation cytotoxicity was determined using Promega's CellTiter 96(R) AQueous One Solution Cell Proliferation Assay (MTS assay) (Promega-Cat.#G3581) according to the manufacturer's instuctions. This is a colorimetric method for determining the number of viable cells in proliferation or cytotoxicity assays. The MTS tetrazolium compound is bioreduced by cells into a colored formazan product that is soluble in tissue culture medium. This conversion is presumably accomplished by NADPH or NADH produced by dehydrogenase enzymes in metabolically active cells.
Briefly, MTS solution was thawed at room temperature, or in a water bath at 37 °C and 40 µL of MTS solution was pipeted into each well of the 96-well assay plate containing the samples in 200 µL of culture medium and incubated at 37 °C, 5% CO2 for 4 hours. The optical density was read at 490 nm using a 96-well plate reader (Tecan Infinite F50) and TD50 (toxic dose 50%, dose killing 50% of the cells compared to untreated control) value was calculated by interpolation of the curve obtained by plotting dose against percent mortality and by using "Magellan data analysis software". CM alone plus MTS solution was used as a blank, and cell culture well without compound was used as a cellular control.

[3] = target: T1, full length (1-55) HIV-1 NCp7 (Human immunodeficiency virus type 1 group M subtype B, UniProt P12493); assay: Electromobility Shift Assay (EMSA), competition for ssDNA binding; conditions: NCp7 300 nM, M13mp18 ssDNA; positive = >25% inhibition at 100µM
T1 construct: recombinant full length (1-55) HIV-1 NCp7 proteins; made in house
Source text: The assay used a recombinant full length (1-55) HIV-1 NCp7 proteins based on the NL4-3 sequence (GenBank accession number AF324493). The protein was expressed and purified as described in [Carteau, S., Gorelick, R. J. & Bushman, F. D. Coupled integration of human immunodeficiency virus type 1 cDNA ends by purified integrase in vitro: stimulation by the viral nucleocapsid protein. Journal of virology 73, 6670-6679 (1999)].
Competition for single-stranded (ss) DNA binding was realized by mixing 1 µL of serial dilutions of NC inhibitors (diluted in DMSO) with 44 µL of NCp7 (300 nM) in a reaction buffer (20 mM Tris-HCl pH 7.4, 2 mM MgCl2, 100 mM NaCl, 1 mM DTT). 5 µL of a 10 ng/µL (4 nM) solution of M13mp18 ssDNA (BayouBiolabs) were then added and the tubes were incubated for 25 minutes at 37 °C. The reaction was terminated by chilling the tubes on ice followed by the addition of 5 µL of a loading buffer (30% glycerol, 0.01% xylene cyanol, 10 mM Tris-HCl pH 7.4). Samples were then resolved on 25 cm-long, 1% (w/v) agarose gels (SeaKem LE Agarose, Lonza) in 0.5x TBE. Gels were run in a Sub-Cell GT cuvette (BioRad) for 18 h at room temperature at 3 V/cm, stained with SybrGold (Molecular Probes) and scanned for fluorescence using a Typhoon 8600 (GE Healthcare). The experiments were performed in triplicate. Competition efficiency was realized by measuring the relative distance in pixels between the unbound ssDNA control, the NCp7-bound ssDNA control and the bound ssDNA for each points of the titration with the ImageQuant software. The IC50 was estimated as the NC inhibitors concentrations for which the bound ssDNA migrated at 50% of the distance separating the bound from the unbound ssDNA.

SMILES	Proliferation assay HELA TD50 [1] [µM]	Proliferation assay PBMC TD50 [2] [µM]	EMSA screening results [3]	TD50 [2] [µM]
C[C@H](NC(=O)c1nc(-c2cc(C(F)(F)F)ccn2)nc(O)c1O)C1CCCCC1 [Compound 52, (S)-N-(1-cyclohexylethyl)-5,6-dihydroxy-2-(4-(trifluoromethyl)pyridin-2-yl)pyrimidine-4-carboxamide]	10.186	1.2	Positive (A compound showing >25% inhibition when tested at 100µM concentration is considered as "positive")	
Cc1nnc(C(=O)NC(C)(C)c2nc(C(=O)NCc3ccc(F)cc3)c(O)c(=O)n2C)o1 [Raltegravir™, Raltegravir, reference compound]				> 50
COc1ccc2nc(-c3nc(O)c(O)c(C(=O)N[C@H](C)C4CCCCC4)n3)ccc2c1 [Compound 66, (R)-N-(1-cyclohexylethyl)-5,6-dihydroxy-2-(6-methoxyquinolin-2-yl)pyrimidine-4-carboxamide]	3.66	6.6	Positive (A compound showing >25% inhibition when tested at 100µM concentration is considered as "positive")	
C[C@@H](NC(=O)c1nc(-c2ccc(C(N)=O)cn2)nc(O)c1O)C1CCCCC1 [Compound 51, (R)-2-(5-carbamoylpyridin-2-yl)-N-(1-cyclohexylethyl)-5,6-dihydroxypyrimidine-4-carboxamide]	26.976	8	Negative	
O=C(NCCC1CCCC1)c1nc(-c2ccccn2)nc(O)c1O [Compound 43, N-(2-cyclopentylethyl)-5,6-dihydroxy-2-(pyridin-2-yl)pyrimidine-4-carboxamide]	2.1901	8.09	Positive (A compound showing >25% inhibition when tested at 100µM concentration is considered as "positive")	
CC1CCCC(NC(=O)c2nc(-c3ccccn3)nc(O)c2O)C1 (stereo not shown) [Compound 57, 5,6-dihydroxy-N-(3-methylcyclohexyl)-2-(pyridin-2-yl)pyrimidine-4-carboxamide]	1.9094	2.7	Positive (A compound showing >25% inhibition when tested at 100µM concentration is considered as "positive")	
CC1CCC(NC(=O)c2nc(-c3ccccn3)nc(O)c2O)CC1 (stereo not shown) [Compound 56, 5,6-dihydroxy-N-(4-methylcyclohexyl)-2-(pyridin-2-yl)pyrimidine-4-carboxamide]	3.2039	4.6	Positive (A compound showing >25% inhibition when tested at 100µM concentration is considered as "positive")	
C[C@@H](NC(=O)c1nc(-c2nc3ccccc3[nH]2)nc(O)c1O)C1CCCCC1 [Compound 29, (R)-2-(1H-benzo[d]imidazol-2-yl)-N-(1-cyclohexylethyl)-5,6-dihydroxypyrimidine-4-carboxamide]	3.3965	1.7	Positive (A compound showing >25% inhibition when tested at 100µM concentration is considered as "positive")	
Cc1ccc(-c2nc(O)c(O)c(C(=O)N[C@H](C)C3CCCCC3)n2)nc1C [Compound 67, (R)-N-(1-cyclohexylethyl)-2-(,5,6-dimethylpyridin-2-yl)-5,6-dihydroxypyrimidine-4-carboxamide]	3.7577	6.7	Positive (A compound showing >25% inhibition when tested at 100µM concentration is considered as "positive")	
CC1(C)CCC(NC(=O)c2nc(-c3ccccn3)nc(O)c2O)CC1 [Compound 58, N-(4,4-dimethylcyclohexyl)-5,6-dihydroxy-2-(pyridin-2-yl)pyrimidine-4-carboxamide]	2.0452	1.6	Positive (A compound showing >25% inhibition when tested at 100µM concentration is considered as "positive")	
Cc1ccc(-c2nc(O)c(O)c(C(=O)N[C@H](C)C3CCCCC3)n2)nc1 [Compound 41, (R)-N-(1-cyclohexylethyl)-5,6-dihydroxy-2-(5-methylpyridin-2-yl)pyrimidine-4-carboxamide]	2.013	2.8	Positive (A compound showing >25% inhibition when tested at 100µM concentration is considered as "positive")	
O=C(OC1CCCCC1)c1nc(-c2ccccn2)nc(O)c1O [Compound 13, cyclohexyl 5,6-dihydroxy-2-(pyridin-2-yl)pyrimidine-4-carboxylate]	>50	16.3	Negative	
C[C@@H](NC(=O)c1nc(-c2cccc(C(=O)OCc3ccccc3)n2)nc(O)c1O)C1CCCCC1 [Compound 54, benzyl (R)-6-(4-((1-cyclohexylethyl)carbamoyl)-5,6-dihydroxypyrimidin-2-yl)picolinate]	24.972	25	Positive (A compound showing >25% inhibition when tested at 100µM concentration is considered as "positive")	
C[C@@H](NC(=O)c1nc(-c2ccc(C(=O)NCc3ccccc3)cn2)nc(O)c1O)C1CCCCC1 [Compound 50, (R)-2-(5-(benzylcarbamoyl)pyridin-2-yl)-N(1-cyclohexylethyl)-5,6-dihydroxypyrimidine-4-carboxamide]	2.2912	2.2	Positive (A compound showing >25% inhibition when tested at 100µM concentration is considered as "positive")	
C[C@@H](NC(=O)c1nc(-c2cc(C(=O)OCc3ccccc3)ccn2)nc(O)c1O)C1CCCCC1 [Compound 46, benzyl (R)-2-(4-((1-cyclohexylethyl)carbamoyl)-5,6-dihydroxypyrimidin-2-yl)isonicotinate]	6.4784	1	Positive (A compound showing >25% inhibition when tested at 100µM concentration is considered as "positive")	
